# Reference: patent US9260461B2, “Water-soluble derivatives and prodrugs of acacetin and methods of making and using thereof” (Versitech Limited, priority 2014, dated 2016)
# Legend:
# [1] = system: ventricular arrhythmias induced by ischemia-reperfusion injury; test: Ischemia-reperfusion model in anesthetized rats (ventricular arrhythmias, heart rate, left ventricular contractile function); format: in vivo, Sprague-Dawley (SD) rats; conditions: for incidence of severe ventricular fibrillation: 90% in vehicle, P<0.05
# Protocol: Adult male Sprague-Dawley (SD) rats (250-300 g) were anesthetized with pentobarbital (30 mg/kg i.p.), supplemented during the experiment when needed. The animal was intubated and ventilated. Body temperature was maintained at 37° C. with a temperature control system. The jugular vein was cannulated for drug administration and a plastic tubing (0.8 mm OD) was introduced into the left ventricle through the […] to measure the contractile function (e.g. left ventricular pressure). The left chest was opened under ventilation to expose the coronary artery. A fine silk was introduced at the upper ⅓ left anterior coronary descending artery (LA). After a 10-min stabilization period, the drug at 5, 10, or 20 mg/kg was intravenously administrated respectively in 5 min, and an equal volume (1 mL/kg) of vehicle was administrated for the control. LAD was then ligated for 10 min followed a 30-min reperfusion. ECG and blood pressure signals were continuously monitored and stored on an IBM compatible PC computer using a multiple channels data acquisition system (RM-6280C, Chengdu Instrument Ltd, Chendu, China) to record the incidence of ventricular arrhythmia (i.e. fibrillation, tachycardia, and premature beats) and […].
# To investigate the effects of water-soluble Prodrug A on ventricular arrhythmias induced by ischemia-reperfusion injury, the in vivo ischemia-reperfusion model was established in SD rats. In this model, the animal, ventricular arrhythmias, including premature ventricular beats (PVBs), and ventricular tachycardia (VT), were developed with 10 min ischemia (ligation of coronary anterior descending artery) followed by […]. Ventricular fibrillation was frequently observed during the early reperfusion in the control animal with intravenous vehicle (FIG. 1A), but not in the animal treated with intravenous Prodrug A (10 mg/kg for 5 min, FIG. 1B). Prodrug A at 5 mg, 10, and 20 mg/kg decreased arrhythmia score (FIG. 1C) and arrhythmia duration in a dose-dependent manner (P<0.05 or P<0.01 vs. vehicle).
# In addition to the anti-ventricular fibrillation, Prodrug A prevented heart rate reduction (FIG. 2A), and improved the decreased function contractile function including left ventricular systolic pressure (FIG. 2B), development pressure (FIG. 2C), and +dP/dT (FIG. 2D) induced by ischemia and/or reperfusion injury in a dose-dependent manner (P<0.05 or P<0.01 vs. vehicle).
# [2] = biological target: T1, Kv4.3 current (hKv4.3 gene expressed in HEK 293 cells) (Homo sapiens, UniProt Q9UK17); test: Whole-cell patch-clamp, Kv4.3 current in HEK 293 cells; format: cell-based; conditions: 30 μM, representative cells
# T1 construct: expressed in transfected cells
# T1 sequence (Q9UK17 1-655): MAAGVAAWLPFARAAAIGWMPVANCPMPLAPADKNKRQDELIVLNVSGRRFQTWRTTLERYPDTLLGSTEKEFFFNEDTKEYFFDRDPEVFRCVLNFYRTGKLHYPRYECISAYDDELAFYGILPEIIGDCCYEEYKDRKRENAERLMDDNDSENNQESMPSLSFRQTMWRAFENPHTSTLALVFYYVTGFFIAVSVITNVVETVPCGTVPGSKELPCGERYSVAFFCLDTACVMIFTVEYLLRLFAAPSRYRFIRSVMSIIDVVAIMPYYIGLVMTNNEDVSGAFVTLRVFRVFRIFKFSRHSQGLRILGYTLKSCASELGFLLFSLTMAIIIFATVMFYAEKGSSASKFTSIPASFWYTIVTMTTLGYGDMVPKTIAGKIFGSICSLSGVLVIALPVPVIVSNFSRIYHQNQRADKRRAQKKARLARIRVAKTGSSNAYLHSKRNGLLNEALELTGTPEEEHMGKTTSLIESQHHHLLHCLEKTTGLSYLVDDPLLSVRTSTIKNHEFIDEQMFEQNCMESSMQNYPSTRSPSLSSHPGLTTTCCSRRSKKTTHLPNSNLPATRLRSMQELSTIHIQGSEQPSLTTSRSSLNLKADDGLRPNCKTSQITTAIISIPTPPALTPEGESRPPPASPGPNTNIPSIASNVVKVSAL
# Protocol: HEK 293 cell line stably expressing the hKV1.5 gene (Wu et al., 2011) or hKv4.3 gene (Wu et al., 2013) was maintained in Dulbecco's modified eagle's medium (DMEM, Invitrogen, Hong Kong) supplemented with 10% fetal bovine serum and 400 μg/mL G418 in a 5% CO2 incubator. Cells were seeded on a glass cover slip for electrophysiology recording.
# Ionic currents in HEK 293 cell lines and rat atrial myocytes were measured by the standard whole-cell patch-clamp technique using a standard pipette and bath solution with an EPC-10 amplifier and Pulse software (HEKA, Lambrecht, Germany). A 3M KCl-agar salt bridge was used as the reference electrode. The current signal was sampled at 5 kHz, recorded and stored in the hard disk of an IBM compatible computer. All experiments were conducted at room temperature (22-23° C.).
# However, Kv1.5 current (FIG. 3D), Kv4.3 current (FIG. 3E) or IKACh (FIG. 3F) was inhibited by 10 μM acacetin in representative cells consistent with experimental reports.
# [3] = system: myocardial infarction induced by ischemia-reperfusion; test: Ventricular infarct area (TTC staining) in anesthetized rats with ischemia-reperfusion; format: in vivo; conditions: 10 mg/kg i.v.; n=4, P<0.01 vs vehicle
# [4] = Solubility of the purified prodrugs versus parent compound acacetin; format: physicochemical; conditions: aqueous buffer; Tris solution, pH=7.0; read-out: solubility in Tris solution
# From the text: Prodrug B: Light yellow solid. Yield 54%. C16H11O7PNa2 (408.21). EI-MS: m/z 387.04 [M+H—Na]^+. ^1H NMR (400 MHz, DMSO-d6): δ=12.90 (s, 1H), 8.04 (d, J=8.8 Hz, 2H), 7.10 (d, J=8.8 Hz, 2H), 7.02 (s, 1H), 6.98 (s, 1H), 6.60 (s, 1H), 3.89 (s, 3H) ppm.
# [5] = 10 mg and 20 mg/kg, before ligation
# [6] = 5, 10 and 20 mg/kg i.v., dose-dependent, P<0.05 or P<0.01 vs. vehicle
# [7] = i.v., dose-dependent, P<0.05 or P<0.01 vs. vehicle
compound,measurement,setting,value
COc1ccc(-c2cc(=O)c3c(O)cc(OP(=O)(O)O)cc3o2)cc1 [Prodrug A],heart rate before coronary artery ligation,[1]; [5],without affecting
same,left ventricular development pressure before coronary artery ligation,[1]; [5],slightly but significantly increased
same,left ventricular systolic pressure before coronary artery ligation,[1]; [5],slightly but significantly increased
same,incidence of severe ventricular fibrillation,[1]; 10 mg/kg i.v.,30%
same,incidence of severe ventricular fibrillation,[1]; 20 mg/kg i.v.,20%
same,arrhythmia duration,[1]; [6],decreased
same,arrhythmia score,[1]; [6],decreased
same,decreased +dP/dT induced by ischemia and/or reperfusion injury,[1]; [7],improved
same,decreased left ventricular development pressure induced by ischemia and/or reperfusion injury,[1]; [7],improved
same,decreased left ventricular systolic pressure induced by ischemia and/or reperfusion injury,[1]; [7],improved
same,heart rate reduction induced by ischemia and/or reperfusion injury,[1]; [7],prevented
same,effect on Kv4.3 current,[2],no inhibitory effect
same,ventricular infarct area,[3],reduced
same,solubility,[4],10000 µg/mL
